Measured values taken from patent US7312358B2, “Pharmaceutically active sulfanilide derivatives” (Laboratoires Serono SA, priority 2000, dated 2007).

Tests used:
hOT receptor = target: T1, hOT receptor (Homo sapiens, UniProt P30559); test: In vitro competition binding assay on hOT receptor with scintillating proximity assay; details: membranes from HEK293EBNA cells expressing hOT receptor; radiolabel [125I]-OVTA; SPA; read-out: Binding Affinity Human OT-R Ki
T1 construct: expressed in transfected cells; host or cells: HEK293EBNA cells (membranes)
T1 sequence (P30559 1-389): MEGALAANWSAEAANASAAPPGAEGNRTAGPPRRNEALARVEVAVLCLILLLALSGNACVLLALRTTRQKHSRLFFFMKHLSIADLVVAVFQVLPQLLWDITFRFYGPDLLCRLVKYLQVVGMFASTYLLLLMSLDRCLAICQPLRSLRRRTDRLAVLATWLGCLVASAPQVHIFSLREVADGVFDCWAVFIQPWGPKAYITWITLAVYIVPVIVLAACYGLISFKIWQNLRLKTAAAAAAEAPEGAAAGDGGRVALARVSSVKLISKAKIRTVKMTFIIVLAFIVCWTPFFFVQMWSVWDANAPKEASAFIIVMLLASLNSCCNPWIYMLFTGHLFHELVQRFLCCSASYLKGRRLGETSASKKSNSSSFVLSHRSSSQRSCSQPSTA
Summary of the method: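 SPA competition binding using HEK293EBNA membranes expressing hOT receptor (2-4 μg) with WGA beads and 0.2 nM [125I]-OVTA in 50 mM Tris-HCl pH 7.4, 5 mM MgCl2, 0.1% BSA, 30 min at room temperature. Non-specific binding with 1 μM oxytocin; compounds at 10 pM–30 μM; IC50 by nonlinear curve fitting.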

[1] = tested on: oxytocin-induced uterine contractions in the rat; test: In vivo model for inhibition of uterine contractions; details: anaesthetised DES-treated non-pregnant female rat, route not given
Method: f) In Vivo Model for Inhibition of Uterine Contractions
The assay intends to show the biological effect of tested compounds in an in vivo model of preterm labor, premature birth.
Non-pregnant Charles River CD(SD) BR female rats (9-10 weeks old, 200-250 g) were treated at 18 and 24 hours before the experiment with 250 μg/kg, i.p. diethylstilbestrol (DES). For the assay, the animal was anaesthetised by urethane (1.75 g/kg, i.p.) and placed on an homeothennic operating table. The trachea was isolated and cannulated with a suitable polyethylene (PE) tubing. A midline incision at the hypogastrium level was made and one uterine horn exposed, its cephalic end cannulated with a PE240 tubing and, after filling the internal cavity with 0.2 ml of sterile physiological saline, connected to a “Gemini” amplifying/recording system via a P231D Gould Statham pressure transducer. For the i.v. route of administration of the test compounds, one jugular vein was isolated and cannulated with a PE60 tubing connected to a butterfly needle to allow the administration by a dispensing syringe. In the case of intraduodenal administration of the test compounds, the duodenum was isolated and similarly cannulated through a small incision in its wall. One carotid artery was also isolated and cannulated with PE60 catheter and connected to a suitable syringe for blood sample collection (see below). After a stabilization period, the same dose of oxytocin was repeatedly injected intravenously at 30-min intervals. […] Further injections of the same dose of oxytocin were then made for a suitable time after treatment to assess inhibitory effects of the compounds under study. The contractile response of the uterus to oxytocin was quantified by measuring the intra-uterine pressure and the number of contractions. The effect of the reference and test compounds were evaluated by comparing pre- and post-treatment pressure values. In addition, at 2, 30, 90 and 210 minutes after test compound administration, a 0.5-ml blood sample was withdrawn from the cannulated carotid artery of each experimental animal. Plasma was obtained by standard laboratory procedure and the resulting samples were stored at −20° C.
The activities of the sulfanilide derivatives claimed in the Formula I were assessed using the above described in vivo biological assay. The values refer to the capacity of the example compound according to Formula I to effectively antagonize oxytocin-induced uterine contractions in the rat.

CCOc1ccc(S(=O)(=O)N(CC(=O)N/N=C2/C(=O)Nc3ccccc32)c2ccc(C)cc2)cc1 [Example 5, 4-ethoxy-N-(4-methylphenyl)-N-{2-oxo-2-[2-(2-oxo-1,2-dihydro-3H-indol-3-ylidene)hydrazino]ethyl}benzenesulfonamide]
Ki (hOT receptor): 17.3 nM | % Reduction of Uterine Contraction ([1]; dose 5 mg/kg): 23.9 ± 4.0% | % Reduction of Uterine Contraction ([1]; dose 7.5 mg/kg): 40.3 ± 4.2% | % Reduction of Uterine Contraction ([1]; dose 10 mg/kg): 62.6 ± 5.0%
